Measured values from US6852333B1, “Agents and methods for promoting production gains in animals” (The Horticulture and Food Research Institute of New Zealand …, priority 1999, dated 2005).

Assays:
[1] = Stress relieving compounds given with anthelmintic, growth of ewes over 12 months (Experiment 13); format: in vivo, sheep; details: for effect on growth compared to control animals (FIG. 20): ewes treated every 2 months with anthelmintic plus agent; for effect on growth: alone or added to metyrapone
Method: […] A further 7 ewes received either astressin 0.0005 g or astressin and metyrapone (astressin at 0.0005 g and metyrapone at 0.001 g) and the vitamin C and amino acid mixture as above.
Bodyweight was measured monthly and animals were treated equivalently in all other aspects.

nematode = assay: Anthelmintic efficacy (faecal egg / nematode counts) in stressed sheep given metyrapone (Experiments 3-5); format: in vivo
Excerpt: In a first series of experiments, sheep were divided into pairs from initial twins. All the animals were grazed together, on the same paddocks, from pairing through to the end of the trial. They were thus exposed to the same potential parasite load and the same access to feed and water. The animals were also genetically similar (i.e at least one shared parent). Experiments were begun when the animal was 3 months of age. One half of the pairings were rounded up once a week and run through a race (control group). Any normal farm maintenance that was needed was done at this time, so that the time that animals may have been held was variable from week to week but consistent across the entire group and with the experimental group (see below). Faecal samples were also collected and both total egg and nematode egg counts calculated, and visual inspection for ectoparasites made. The other half of the pairings (chronic stress group) were exposed to the same handling […] (consistent with the single weekly procedure above) and in addition to this were run around a paddock by either a human or dog (alternating) for 10 minutes. In this manner a mild, chronic, handling stress was imposed on these animals. Races and handling facilities were cleaned between animal movements to avoid any risk of parasitic contamination. Animals were subject to the same anthelmintic treatments consisting of three pour-on (Ivomec pour on, MSD 1 ml per 50 kg), three oral (Endex, Novartis—1 ml per 5 kg) and three injectable treatments (levamisole. 7.5 mg/kg) per year (every four months). In a similar parallel experiment the control group was identical and the paired group to this control (acute stress) received identical treatment to the control group and in addition an acute stress one day prior to anthelmintic treatment. This consisted of chasing the group three times during the day with a dog for 15 min duration each time. The faecal egg count and ectoparasite assessment was the same in both groups at time of the first experimental anthelmintic treatment. […]

faecal count (parasites) = assay: Increase of anthelmintic effect, monthly faecal count (Experiment 10); format: in vivo, sheep; details: anthelmintics and agents given every four months; faecal count each month
Method: In a further experiment similar to that described in experiments 3 and 4 the increased anthelmintic effect from vitamin C, isoleucine, valine and leucine alone or in combination with metyrapone, and metyrapone and pyrrolopyrimidine was tested. Anthelmintics and these agents were given every four months and faecal count calculated each month in between treatments.

[2] = Dose response and dose composition, growth promotant effects (Experiment 9); format: in vivo, sheep, poultry, pigs and rats; details: oral three times over six weeks
Method: (§1) In four different species (sheep, poultry, pigs and rats) different dosages of the compound metyrapone alone or in combination with vitamin C, isoleucine, leucine, valine were tested for growth promotant effects.
(§2) These mixtures were administered by oral routes three times over six weeks and a control group was administered a glucose mix at the same time (calorie equivalent). Animal growth in terms of liveweight gains were measured over periods of time, as was feed consumed.

[3] = Growth rate of sheep given metyrapone with anthelmintic treatment (Experiments 3 and 6); format: in vivo; details: no additional stresses; metyrapone 5 mg/kg at the time of anthelmintic treatment
Excerpt: In a first series of experiments, sheep were divided into pairs from initial twins. All the animals were grazed together, on the same paddocks, from pairing through to the end of the trial. They were thus exposed to the same potential parasite load and the same access to feed and water. The animals were also genetically similar (i.e at least one shared parent). Experiments were begun when the animal was 3 months of age. One half of the pairings were rounded up once a week and run through a race (control group). Any normal farm maintenance that was needed was done at this time, so that the time that animals may have been held was variable from week to week but consistent across the entire group and with the experimental group (see below). Faecal samples were also collected and both total egg and nematode egg counts calculated, and visual inspection for ectoparasites made. Animals were subject to the same anthelmintic treatments consisting of three pour-on (Ivomec pour on, MSD 1 ml per 50 kg), three oral (Endex, Novartis—1 ml per 5 kg) and three injectable treatments (levamisole. 7.5 mg/kg) per year (every four months). In a similar set of experiments to experiment 1, the animals in the chronic stress group also all received a chemical substance metyrapone (in an oral form at 5 mg/kg live weight) at the time of anthelmintic treatment. […]

[4] = Dose response of metyrapone, growth promotant effects in pigs (Experiment 9); format: in vivo; details: oral three times over six weeks
Method: as §1, §2

[5] = Reproductive success of ewes (Experiment 11); format: in vivo, sheep; details: over 3 seasons following original metyrapone treatments, vs control group
Excerpt: Female sheep (20 ewes) chosen from original experiments in experiments 4, 5 and 6 were studied for seasonal reproductive success for up to 3 seasons following the original metyrapone treatments. These animals received no further metyrapone treatments and were kept in a flock with a similar selected group of 20 control age and weight matched counterparts that had not received metyrapone treatment.
In a separate experiment using the different sheep with no previous exposure to treatments, 20 age and bodyweight matched ewes were run as a flock. Ten of these ewes received three treatments of metyrapone and vitamin C, isoleucine, leucine and valine at a dosage of 0.001 g metyrapone/0.01 g vitamin c, 0.0005 g each of valine, isoleucine and leucine per kg liveweight in an oral form without anthelmintics. These three treatments occurred one month prior to conception, in the first and third trimester of pregnancy. The remaining ten ewes received a similar handling and control administration of a glucose-amino acid mixture.

[6] = test system: faecal egg count (parasites); assay: Nitric oxide donor and anthelmintic efficacy, time until faecal egg count rose to around 600 (Experiment 15); format: in vivo, sheep; details: 0.0001 g per kg liveweight oral with anthelmintic every four months
Excerpt: In a separate experiment 20 sheep (mixed male and females) received standard anthelmintic treatments similar to experiments 3 and 4, with anthelmintics and treatments given every four months. Treatment in 10 of these animals consisted of the anthelmintic dosing and S-nitroso-N-acetylpenicillamine, a nitric oxide donor at a dose of 0.0001 g per kg liveweight in an oral form. The other 10 received the anthelmintic and a glucose control. Anthelmintic successfulness in terms of time from treatment until faecal egg count rose to around 600 as described in experiments 3 and 4 was examined. […] FIG. 22 illustrates this.

[7] = Broiler chicken trial: weight and feed conversion ratio with SAC in feed (Experiment 7); format: in vivo, broiler chickens
Excerpt: This work aimed to investigate the effectiveness of an antistress containing composition or a stress alleviating composition (conveniently referred to as “SAC”), ([…], vitamin C and long chain amino acid mix) versus a calorie adjusted control, in lowering the physiological responses to stress and promoting growth in an intensive production systems (broiler chickens). In addition, the effect of the SAC agent in combination with existing industry feed additives (Performance enhancers: antibiotics and indigestible carbohydrates (oligosaccharides) was investigated in broiler chickens.
432 day-old male broiler chicks were used in the experiment carried out over six weeks in a poultry research unit. Chicks were assigned at random to one of 12 groups: • Group 1—Control 32° C. (n=36) • Group 2—Control 28° C. (n=36) • Group 3—Experimental Formulation A 32° C. (n=36) • Group 4—Experimental Formulation A 28° C. (n=36) • Group 5—Experimental Formulation B 28° C. (n=36) • Group 6—Experimental Formulation C 28° C. (n=36) • Group 7—Performance Enhancer 32° C. (n=36) • Group 8—Performance Enhancer 28° C. (n=36) • Group 9—Oligosaccharide 32° C. (n=36) • Group 10—Oligosaccharide 28° C. (n=36) • Group 11—Experimental Formulation A+Performance Enhancer 32° C. (n=36) • Group 12—Experimental Formulation A+Oligosaccharide 32C (n=36)
Once selected, groups of 6 birds were housed per cage in heated brooders (i.e. One treatment group (36 birds) per 6 cages). Each group had access to pelleted feed (NRM New Zealand) in excess of requirements during the trial conforming to standard poultry use Ross broiler specification), and water was freely available. During the manufacturing of the feed the following treatments were included.
SAC Agent (2-methyl-1,2-di-3-pyridyl-1-propanone, vitamin C, valine, isoleucine and leucine mixture), mixed with a glucose-based polymer carrier (0.01 g drug to 1 g of carrier) before addition to the feed in the following doses. • Formulation A (per kg feed): • 0.01 g 2-methyl-1,2-di-3-pyridyl-1-propanone • 0.1 g Vitamin C • 5 mg Valine, isoleucine and leucine • Formulation B (per kg feed): • 0.005 g 2-methyl-1,2-di-3-pyridyl-1-propanone • 0.05 g Vitamin C • 0.5 mg Valine, isoleucine and leucine • Formulation C (per kg feed): • 0.001 g 2-methyl-1,2-di-3-pyridyl-1-propanone • 0.01 g Vitamin C • 0.1 mg Valine, isolcucine and leucine • Performance Enhancers: • (Avilamycin (Surmax): Elanco Animal Health, Indianapolis, USA) • Dose: <0.2 g/kg (antibiotic concentration of 0.1 (g/ml). • Mannan oligosaccharide—indigestible carbohydrate (Bio-Mos: Alltech, Inc.USA) • Dose: 1 g/kg
Daily feed intake was recorded for each group of birds, and all birds were weighed weekly.
Birds were either kept at optimum temperature levels (32° C.) or exposed to cold stress (28° C.) from day 1 until day 14 of the trial. After 14 days they were removed to larger raised horizontal cages where all groups were maintained at 21° C. The birds remained in these cages for the remainder of the trial after which time they were slaughtered. After slaughter, meat from 6 birds per group was analysed for fat composition.

[8] = week 2, end of the cold stress period 28° C.
[9] = week 3, after the stressor was removed (21° C.)
[10] = week 4, after the stressor was removed (21° C.)

Molecule: CC#C[C@]1(O)CC[C@H]2[C@@H]3CCC4=CC(=O)CCC4=C3[C@@H](c3ccc(N(C)C)cc3)C[C@@]21C [mifepristone]
- Kg of Growth in 12 months ([1]; 0.0001 g/kg mifepristone): 4 ± 4 kg
- Kg of Growth in 12 months ([1]; 0.0005 g/kg mifepristone): 8 ± 2 kg
- effect on growth compared to control animals (FIG. 20) [1]: small positive effect
- effect on growth ([1]; mifepristone dose 0.0001 g/kg): no effect compared to control
- effect on growth ([1]; mifepristone dose 0.0005 g/kg): small increase in growth over control treatments

Molecule: CCCN(CCC)C(=O)C(CCC(=O)O)NC(=O)c1ccccc1 (centres unmarked) [proglumide]
- effect on growth compared to control animals (FIG. 20) [1]: small positive effect

Molecule: astressin
- Kg of Growth in 12 months ([1]; 0.0005 g/kg astressin): 10 ± 4 kg

Molecule: CC(C)(C(=O)c1cccnc1)c1cccnc1 [metyrapone, 2-methyl-1,2-di-3-pyridyl-1-propanone]
- differences between acute stress and control groups (nematode; acute stress group receiving metyrapone oral 5 mg/kg with anthelmintic): no differences were seen between the acute and control groups
- efficacy of anthelmintics compared with the non-stressed groups (nematode; chronic stress group, metyrapone oral 5 mg/kg live weight at the time of anthelmintic treatment): same efficacy of anthelmintics as the non-stressed groups
- time until nematode counts exceeded recommended number for dosing (nematode; one treatment including metyrapone, chronic and acute stressed animals vs control group): no differences to the control group
- Kg of Growth in 12 months ([1]; 0.0001 g/kg metyrapone): 13 ± 3 kg
- Kg of Growth in 12 months ([1]; 0.0001 g/kg metyrapone + control): 14 ± 3 kg
- effect on growth compared to control animals (FIG. 20) [1]: larger effect
- anthelmintic effectiveness (faecal count) (faecal count (parasites)): more effective than with the anthelmintic alone
- % gain in production with increase in dose ([2]; all species except pigs): an increase in gain was seen with an increase in dose of metyrapone levelling out
- growth (liveweight gain) ([2]; all species): increased growth
- net gain, growth over the year (mean) [3]: 18 kg
- % gain in production with dose [4]: a low and a high dose were effective however a mid-range dose did not produce the same gains
- birthweight of lambs [5]: slightly greater than seen in the control group

Molecule: CC(=O)N[C@H](C(=O)O)C(C)(C)SN=O (racemic) [S-nitroso-N-acetylpenicillamine]
- effectiveness of anthelmintic (time until faecal egg count rose to around 600) [6]: better effectiveness of anthelmintic than control animals

Molecule: COC[C@H]1O[C@@H](OC2OC[C@@H]3O[C@]4(O[C@H]3[C@H]2OC(=O)C(C)C)O[C@H](C)[C@@](O)(C(C)=O)[C@@H]2OCO[C@H]24)[C@@H](OC)[C@@H](O)[C@@H]1O[C@@H]1O[C@H](C)[C@H](OC)[C@H](O[C@H]2C[C@@]3(C)OC4(C[C@@H](O)[C@H](O[C@H]5C[C@@H](O)[C@H](OC(=O)c6c(C)c(Cl)c(O)c(Cl)c6OC)[C@@H](C)O5)[C@@H](C)O4)O[C@@H]3[C@@H](C)O2)[C@H]1O (some centres unmarked) [antibiotic performance enhancer, Avilamycin]
- rate of growth in comparison to birds given the SAC ([7]; exposed to cold stress, during cold stress and afterwards): lower rate of growth
- weight heavier than control birds ([7]; week 1, cold stress 28° C.): 3.5 g
- weight heavier than control birds, percent ([7]; week 1, cold stress 28° C.): 2.0%
- weight heavier than control birds [7, 8]: 6.3 g
- weight heavier than control birds, percent [7, 8]: 1.3%
- weight heavier than control birds [7, 9]: 42.6 g
- weight heavier than control birds, percent [7, 9]: 4.5%
- weight heavier than control birds [7, 10]: 35.2 g
- weight heavier than control birds, percent [7, 10]: 2.2%
